Data reported in ChEMBL document CHEMBL1201862, “PubChem BioAssay data set” (2004).
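Cultured in 96-well plates, cells were exposed to test compound for 48 hours across five concentrations. Here, GI50 denotes the concentration required for 50% inhibition of growth.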 The source made the active and inactive calls. No stated cut-off is given here; in the data, active = GI50 up to about 1.1 µM and inactive = higher.

Tests used:
Assay in all cases: DTP human tumour cell line panel, 48 h
SF-539 = tested on: SF-539
IGROV-1 = tested on: IGROV-1
SK-MEL-2 = tested on: SK-MEL-2
OVCAR-5 = tested on: OVCAR-5
UO-31 = tested on: UO-31
K562 = tested on: K562
HCT-15 = tested on: HCT-15
U-251 = tested on: U-251
SK-MEL-28 = tested on: SK-MEL-28
OVCAR-3 = tested on: OVCAR-3
KM12 = tested on: KM12
TK-10 = tested on: TK-10
SR = tested on: SR
CCRF-CEM = tested on: CCRF-CEM
NCI-H522 = tested on: NCI-H522
A498 = tested on: A498
HCT-116 = tested on: HCT-116

| SMILES | GI50 (SF-539) | GI50 (IGROV-1) | GI50 (SK-MEL-2) | GI50 (OVCAR-5) | GI50 (UO-31) | GI50 (K562) | GI50 (HCT-15) | GI50 (U-251) | GI50 (SK-MEL-28) | GI50 (OVCAR-3) | GI50 (KM12) | GI50 (TK-10) | GI50 (SR) | GI50 (CCRF-CEM) | GI50 (NCI-H522) | GI50 (A498) | GI50 (HCT-116) |
| --- | --- | --- | --- | --- | --- | --- | --- | --- | --- | --- | --- | --- | --- | --- | --- | --- | --- |
| COc1cccc(/C=C(\NC(C)=O)c2nc3cc(Cl)ccc3[nH]2)c1 | > 100 µM (inactive) | > 100 µM (inactive) | > 100 µM (inactive) | > 100 µM (inactive) | > 100 µM (inactive) | > 100 µM (inactive) | > 100 µM | > 100 µM (inactive) | > 100 µM (inactive) | > 100 µM (inactive) | > 100 µM (inactive) | > 100 µM (inactive) | > 100 µM (inactive) | > 100 µM (inactive) | > 100 µM (inactive) | – | – |
| Cc1ccc(S(=O)(=O)N(/N=C/C=C/c2ccccc2)c2nnc(-c3ccccc3)c(-c3ccccc3)n2)cc1 | 16.1 µM (inactive) | 34.6 µM (inactive) | 17 µM (inactive) | 41.2 µM (inactive) | 5.86 µM (inactive) | 15 µM (inactive) | 25.6 µM | 32.1 µM (inactive) | 26.3 µM (inactive) | 20.1 µM (inactive) | 23 µM (inactive) | 24.7 µM (inactive) | – | 21.9 µM (inactive) | 15.9 µM (inactive) | 36.8 µM (inactive) | – |
| O=C(COC(=O)c1cccc2c(=O)c3ccccc3[nH]c12)Nc1ccc(S(=O)(=O)Nc2ncccn2)cc1 | 20.5 µM (inactive) | 39.8 µM (inactive) | – | 39.3 µM (inactive) | > 100 µM (inactive) | 38.5 µM (inactive) | > 100 µM | 24.3 µM (inactive) | 32.9 µM (inactive) | 22.6 µM (inactive) | 43.9 µM (inactive) | 39.4 µM (inactive) | 29 µM (inactive) | 27.5 µM (inactive) | 24.4 µM (inactive) | 95.5 µM (inactive) | 39.6 µM (inactive) |
| CSc1snc2sc3c(Cl)nnnc3c12 | 17.8 µM (inactive) | 18.3 µM (inactive) | 12.6 µM (inactive) | 17.2 µM (inactive) | 13 µM (inactive) | 2.36 µM (inactive) | 8.15 µM | 15.1 µM (inactive) | 10.6 µM (inactive) | 2.43 µM (inactive) | 16.4 µM (inactive) | 16.9 µM (inactive) | – | 2.12 µM (inactive) | – | 15 µM (inactive) | 16 µM (inactive) |
| CCC1(N=[N+]=[N-])C(=O)c2ccccc2N(C)C1=O (configuration not stated) | > 100 µM (inactive) | > 100 µM (inactive) | > 100 µM (inactive) | > 100 µM (inactive) | > 100 µM (inactive) | > 100 µM (inactive) | > 100 µM | > 100 µM (inactive) | > 100 µM (inactive) | > 100 µM (inactive) | > 100 µM (inactive) | > 100 µM (inactive) | > 100 µM (inactive) | > 100 µM (inactive) | > 100 µM (inactive) | > 100 µM (inactive) | > 100 µM (inactive) |
| O=C(OCN1C(=O)C2C3C=CC(C2C1=O)C1C2C(=O)N(COC(=O)C4CCCN4)C(=O)C2C31)C1CCCN1 (configuration not stated) | 47.8 µM (inactive) | > 91 µM (inactive) | > 31.6 µM (inactive) | > 100 µM (inactive) | > 100 µM (inactive) | > 67.9 µM (inactive) | 25 µM | > 45.8 µM (inactive) | > 83.9 µM (inactive) | > 100 µM (inactive) | > 94 µM (inactive) | > 100 µM (inactive) | < 0.01 µM (active) | 21.8 µM (inactive) | 78.3 µM (inactive) | > 100 µM (inactive) | 28.8 µM (inactive) |
| O=C(COc1ccc2c(=O)cc(-c3ccccc3)oc2c1)N1CCN(c2ccccc2)CC1 | 71.1 µM (inactive) | > 100 µM (inactive) | 21.1 µM (inactive) | 34.6 µM (inactive) | 19.8 µM (inactive) | 18 µM (inactive) | 41.2 µM | 38.5 µM (inactive) | 49.8 µM (inactive) | 42.9 µM (inactive) | 60.5 µM (inactive) | 44.6 µM (inactive) | – | 24.7 µM (inactive) | 18.8 µM (inactive) | > 10 µM (inactive) | 71.8 µM (inactive) |
| CC1(Br)C(=O)NC(=O)N(C2CC(N=[N+]=[N-])C(CO)O2)C1N=[N+]=[N-] (configuration not stated) | > 100 µM (inactive) | > 100 µM (inactive) | > 100 µM (inactive) | > 100 µM (inactive) | > 100 µM (inactive) | > 100 µM (inactive) | > 100 µM | > 100 µM (inactive) | > 100 µM (inactive) | > 100 µM (inactive) | > 100 µM (inactive) | > 100 µM (inactive) | – | 53.1 µM (inactive) | 23.1 µM (inactive) | > 100 µM (inactive) | – |
| CC(=O)/C(=C\c1cccc([N+](=O)[O-])c1)C(=O)Nc1ccccc1C | > 100 µM (inactive) | > 100 µM (inactive) | > 100 µM (inactive) | > 100 µM (inactive) | > 100 µM (inactive) | 72.4 µM (inactive) | > 100 µM | 91.2 µM (inactive) | > 100 µM (inactive) | > 100 µM (inactive) | > 100 µM (inactive) | > 100 µM (inactive) | 33.6 µM (inactive) | 31.2 µM (inactive) | > 100 µM (inactive) | – | 57.3 µM (inactive) |
| O=C1OCC(C(=O)c2cccc(O)c2)C1=O (configuration not stated) | > 100 µM (inactive) | > 100 µM (inactive) | – | > 100 µM (inactive) | > 100 µM (inactive) | – | > 100 µM | > 100 µM (inactive) | > 100 µM (inactive) | > 100 µM (inactive) | > 100 µM (inactive) | > 100 µM (inactive) | – | – | > 100 µM (inactive) | > 100 µM (inactive) | > 100 µM (inactive) |
| O=S(=O)(O)C(O)/C=C/c1ccccc1 (configuration not stated) | – | > 100 µM (inactive) | > 100 µM (inactive) | > 100 µM (inactive) | > 100 µM (inactive) | > 100 µM (inactive) | > 100 µM | > 100 µM (inactive) | > 100 µM (inactive) | > 100 µM (inactive) | > 100 µM (inactive) | > 100 µM (inactive) | 26.6 µM (inactive) | 52.5 µM (inactive) | > 100 µM (inactive) | > 100 µM (inactive) | 78.5 µM (inactive) |
| O=C1NC(=O)C(C(=O)C(=O)Nc2ccc(Cl)cc2Cl)C(=O)N1 | > 10 µM (inactive) | > 100 µM (inactive) | > 100 µM (inactive) | > 100 µM (inactive) | > 100 µM (inactive) | > 100 µM (inactive) | > 100 µM | > 100 µM (inactive) | – | > 100 µM (inactive) | 93.1 µM (inactive) | > 100 µM (inactive) | – | > 100 µM (inactive) | – | > 100 µM (inactive) | > 100 µM (inactive) |
| CSc1nc(NC2OC(COC(C)=O)C(OC(C)=O)C(OC(C)=O)C2OC(C)=O)c(/N=C/C=N/c2c(NC3OC(COC(C)=O)C(OC(C)=O)C(OC(C)=O)C3OC(C)=O)nc(SC)[nH]c2=O)c(=O)[nH]1 (configuration not stated) | > 100 µM (inactive) | > 100 µM (inactive) | > 100 µM (inactive) | > 100 µM (inactive) | > 100 µM (inactive) | > 100 µM (inactive) | > 100 µM | > 100 µM (inactive) | > 100 µM (inactive) | > 100 µM (inactive) | > 100 µM (inactive) | > 100 µM (inactive) | > 100 µM (inactive) | – | > 100 µM (inactive) | > 100 µM (inactive) | > 100 µM (inactive) |
| COC(=O)C1C2CC3C(OC(=O)C31)C2I (configuration not stated) | > 100 µM (inactive) | > 100 µM (inactive) | > 100 µM (inactive) | > 100 µM (inactive) | > 100 µM (inactive) | > 100 µM (inactive) | > 100 µM | > 100 µM (inactive) | > 10 µM (inactive) | > 100 µM (inactive) | > 100 µM (inactive) | > 10 µM (inactive) | > 100 µM (inactive) | – | > 100 µM (inactive) | > 100 µM (inactive) | > 100 µM (inactive) |
| O=C(O)CNc1cc(-c2ccccc2)nc(NCC(=O)O)n1 | > 100 µM (inactive) | > 100 µM (inactive) | > 100 µM (inactive) | > 100 µM (inactive) | > 100 µM (inactive) | > 100 µM (inactive) | > 100 µM | > 100 µM (inactive) | 49.5 µM (inactive) | > 100 µM (inactive) | > 100 µM (inactive) | > 100 µM (inactive) | > 100 µM (inactive) | > 100 µM (inactive) | > 100 µM (inactive) | – | > 100 µM (inactive) |
| C#Cc1cccc(NC(=O)/C=C\C(=O)O)c1 | – | – | > 100 µM (inactive) | > 100 µM (inactive) | > 100 µM (inactive) | > 100 µM (inactive) | – | > 100 µM (inactive) | > 100 µM (inactive) | – | > 100 µM (inactive) | > 100 µM (inactive) | – | > 100 µM (inactive) | > 100 µM (inactive) | > 100 µM (inactive) | > 100 µM (inactive) |
| CC(=O)O[C@]12CCCCCC1C1(O)C(O)CCC[C@H]12 (some centres not stated) | – | – | > 100 µM (inactive) | – | > 100 µM (inactive) | > 100 µM (inactive) | > 100 µM | > 100 µM (inactive) | > 100 µM (inactive) | – | > 100 µM (inactive) | > 100 µM (inactive) | > 100 µM (inactive) | > 100 µM (inactive) | – | – | > 100 µM (inactive) |
| C=CC1=C(C)c2cc3[nH]c(cc4nc(cc5[nH]c(cc1n2)c(C)c5CCC(=O)N(CC)CC)C(CCC(=O)N(CC)CC)=C4C)c(C)c3C=C | > 100 µM (inactive) | > 100 µM (inactive) | > 100 µM (inactive) | 74.5 µM (inactive) | > 100 µM (inactive) | > 100 µM (inactive) | > 100 µM | > 100 µM (inactive) | > 100 µM (inactive) | > 100 µM (inactive) | > 100 µM (inactive) | > 100 µM (inactive) | > 100 µM (inactive) | > 100 µM (inactive) | > 100 µM (inactive) | – | > 100 µM (inactive) |
